Assay results taken from patent US20160303089A1, “COMPOUND PERTAINING TO NEUROPOIESIS AND DRUG COMPOSITION” (KYOTO UNIVERSITY, priority 2013, published 2016).

How the values were obtained:
DYRK1A [1] = molecular target: T1, DYRK1A (Homo sapiens, UniProt Q13627); assay: Tau phosphorylation in cell lines with induced expression of DYRK1A and tau protein (western blotting); assay type: cell-based; design: dose or concentration left out as unconfirmed; conditions: compound for 4 hours after induced expression of DYRK1A and tau
Method: Moreover, the study was conducted to investigate whether the compound 3 inhibited the DYRK activity in the cells in vivo by using phosphorylation of tau protein (substrate) as a marker. First, cell lines that can induce the expression of DYRK1A and a tau protein by a drug were established. The cell lines were subjected to the drug treatment to induce the expression of DYRKIA and the tau protein. Then, the cells were treated with the compound 3 […] for 4 hours. After the cells were collected, the phosphorylation of the tau protein was detected by western blotting. The results confirmed that the treatment of the cells with the compound 3 inhibited the tau phosphorylation.

CLK3 = CLK3 (Homo sapiens, UniProt P49761); assay: In vitro assay of the inhibition of protein phosphorylation activity; assay type: biochemical
Chain of CLK3 (P49761 whole entry, species assumed): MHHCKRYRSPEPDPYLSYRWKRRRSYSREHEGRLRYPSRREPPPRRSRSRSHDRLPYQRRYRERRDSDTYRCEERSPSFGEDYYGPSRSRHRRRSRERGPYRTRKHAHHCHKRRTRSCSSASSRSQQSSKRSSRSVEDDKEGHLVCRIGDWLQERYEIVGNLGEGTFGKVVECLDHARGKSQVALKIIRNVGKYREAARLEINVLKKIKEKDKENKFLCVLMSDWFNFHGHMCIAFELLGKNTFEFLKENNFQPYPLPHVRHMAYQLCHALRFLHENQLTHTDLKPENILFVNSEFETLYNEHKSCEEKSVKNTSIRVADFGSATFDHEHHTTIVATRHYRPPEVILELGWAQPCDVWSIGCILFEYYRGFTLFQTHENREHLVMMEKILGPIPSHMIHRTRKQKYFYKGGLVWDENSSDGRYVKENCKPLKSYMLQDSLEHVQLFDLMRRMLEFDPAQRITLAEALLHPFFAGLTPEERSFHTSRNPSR

[2] = test system: phosphorylation of tau protein; assay: Tau phosphorylation in brain, acute cold water stress model (western blotting); assay type: in vivo; conditions: administered 30 minutes before cold water stress (10 minutes); brains collected 5 minutes later
Method: Further, the study was conducted to investigate whether the compounds 1 to 2 inhibited the DYRK activity in the animal individuals in vivo by using phosphorylation of tau protein due to acute cold water stress as a marker. The animals were exposed to cold water stress for 10 minutes, and their brains were collected 5 minutes later. Then, the phosphorylation of the tau protein in the brains was confirmed by western blotting. Consequently, the phosphorylation of the tau protein was enhanced by the acute cold water stress. When the compound 1 or the compound 2 was administered to the animal individuals 30 minutes before they underwent the cold water stress, the tau phosphorylation caused by the cold water stress was inhibited.

CLK2 = CLK2 (Homo sapiens, UniProt P49760); assay: In vitro assay of the inhibition of protein phosphorylation activity; assay type: biochemical
Chain of CLK2 (P49760 whole entry, species assumed): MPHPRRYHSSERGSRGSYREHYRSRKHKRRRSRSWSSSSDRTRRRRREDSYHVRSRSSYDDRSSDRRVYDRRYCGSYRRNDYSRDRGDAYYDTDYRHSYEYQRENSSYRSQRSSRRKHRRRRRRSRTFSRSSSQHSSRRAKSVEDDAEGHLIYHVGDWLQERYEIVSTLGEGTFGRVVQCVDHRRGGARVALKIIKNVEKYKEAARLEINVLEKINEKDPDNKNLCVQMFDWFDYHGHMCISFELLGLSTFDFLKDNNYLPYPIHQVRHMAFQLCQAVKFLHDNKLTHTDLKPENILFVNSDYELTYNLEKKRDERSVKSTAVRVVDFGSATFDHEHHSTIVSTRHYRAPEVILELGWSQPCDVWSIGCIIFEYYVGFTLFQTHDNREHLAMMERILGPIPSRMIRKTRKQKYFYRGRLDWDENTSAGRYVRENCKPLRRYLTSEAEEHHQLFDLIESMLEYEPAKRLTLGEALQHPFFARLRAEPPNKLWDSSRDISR

DYRK3 = molecular target: T2, DYRK3 (Homo sapiens, UniProt O43781); assay: as above; assay type: biochemical
T2 sequence (O43781 1-588): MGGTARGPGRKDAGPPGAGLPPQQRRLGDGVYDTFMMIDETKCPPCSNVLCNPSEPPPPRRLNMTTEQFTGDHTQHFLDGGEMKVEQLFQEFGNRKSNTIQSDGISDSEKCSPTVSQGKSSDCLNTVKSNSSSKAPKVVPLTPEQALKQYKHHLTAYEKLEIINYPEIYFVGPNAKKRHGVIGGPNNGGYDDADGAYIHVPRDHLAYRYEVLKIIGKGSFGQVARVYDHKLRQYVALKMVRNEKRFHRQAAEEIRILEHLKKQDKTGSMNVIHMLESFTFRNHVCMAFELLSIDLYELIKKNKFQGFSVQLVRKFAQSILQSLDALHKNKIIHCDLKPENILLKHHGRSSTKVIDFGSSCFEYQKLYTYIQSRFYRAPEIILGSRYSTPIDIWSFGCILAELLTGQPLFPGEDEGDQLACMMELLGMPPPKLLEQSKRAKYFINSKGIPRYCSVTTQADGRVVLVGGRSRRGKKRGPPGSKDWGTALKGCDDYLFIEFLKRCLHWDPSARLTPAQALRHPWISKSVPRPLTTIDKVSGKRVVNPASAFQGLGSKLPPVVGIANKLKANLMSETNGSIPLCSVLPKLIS

DYRK2 [3] = molecular target: T3, DYRK2 (Homo sapiens, UniProt Q92630); assay: as above; assay type: biochemical
T3 construct: expressed in transfected cells; host or cells: HEK293 Flp-In
T3 sequence (Q92630 1-601): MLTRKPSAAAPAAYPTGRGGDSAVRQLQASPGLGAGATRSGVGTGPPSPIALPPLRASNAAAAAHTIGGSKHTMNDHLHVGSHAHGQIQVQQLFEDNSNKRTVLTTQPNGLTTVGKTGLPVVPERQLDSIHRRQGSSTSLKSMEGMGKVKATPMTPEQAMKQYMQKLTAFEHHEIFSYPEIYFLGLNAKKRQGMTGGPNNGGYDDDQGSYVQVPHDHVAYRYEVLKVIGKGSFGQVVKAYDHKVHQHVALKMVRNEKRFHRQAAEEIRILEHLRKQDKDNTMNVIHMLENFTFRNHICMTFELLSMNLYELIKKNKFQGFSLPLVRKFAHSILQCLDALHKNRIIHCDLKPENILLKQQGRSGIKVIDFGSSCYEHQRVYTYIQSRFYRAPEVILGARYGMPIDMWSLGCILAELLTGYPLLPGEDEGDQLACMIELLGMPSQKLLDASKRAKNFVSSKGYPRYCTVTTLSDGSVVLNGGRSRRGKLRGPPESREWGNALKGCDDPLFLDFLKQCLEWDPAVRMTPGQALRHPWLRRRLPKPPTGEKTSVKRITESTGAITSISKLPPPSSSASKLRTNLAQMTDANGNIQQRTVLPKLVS

DYRKIB = DYRKIB (Homo sapiens, UniProt Q9Y463); assay: as above; assay type: biochemical
Chain of DYRKIB (Q9Y463 whole entry): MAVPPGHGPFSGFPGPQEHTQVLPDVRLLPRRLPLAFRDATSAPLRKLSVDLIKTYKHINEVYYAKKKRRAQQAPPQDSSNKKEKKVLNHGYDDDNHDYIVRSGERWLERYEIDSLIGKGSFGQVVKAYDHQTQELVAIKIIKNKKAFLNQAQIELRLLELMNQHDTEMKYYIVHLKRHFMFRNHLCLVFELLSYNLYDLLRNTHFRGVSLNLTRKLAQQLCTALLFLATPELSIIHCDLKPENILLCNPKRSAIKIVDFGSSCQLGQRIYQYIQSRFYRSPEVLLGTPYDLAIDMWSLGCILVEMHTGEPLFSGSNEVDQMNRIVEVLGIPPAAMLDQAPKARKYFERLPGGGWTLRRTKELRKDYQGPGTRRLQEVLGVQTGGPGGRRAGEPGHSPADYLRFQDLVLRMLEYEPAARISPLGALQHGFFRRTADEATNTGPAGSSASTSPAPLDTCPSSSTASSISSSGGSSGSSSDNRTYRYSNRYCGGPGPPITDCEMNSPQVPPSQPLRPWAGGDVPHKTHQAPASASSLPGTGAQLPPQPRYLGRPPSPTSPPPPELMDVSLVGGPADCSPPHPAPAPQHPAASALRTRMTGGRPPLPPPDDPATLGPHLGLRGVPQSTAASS

CLK1 = CLK1 (Homo sapiens, UniProt P49759); assay: as above; assay type: biochemical
Chain of CLK1 (P49759 whole entry): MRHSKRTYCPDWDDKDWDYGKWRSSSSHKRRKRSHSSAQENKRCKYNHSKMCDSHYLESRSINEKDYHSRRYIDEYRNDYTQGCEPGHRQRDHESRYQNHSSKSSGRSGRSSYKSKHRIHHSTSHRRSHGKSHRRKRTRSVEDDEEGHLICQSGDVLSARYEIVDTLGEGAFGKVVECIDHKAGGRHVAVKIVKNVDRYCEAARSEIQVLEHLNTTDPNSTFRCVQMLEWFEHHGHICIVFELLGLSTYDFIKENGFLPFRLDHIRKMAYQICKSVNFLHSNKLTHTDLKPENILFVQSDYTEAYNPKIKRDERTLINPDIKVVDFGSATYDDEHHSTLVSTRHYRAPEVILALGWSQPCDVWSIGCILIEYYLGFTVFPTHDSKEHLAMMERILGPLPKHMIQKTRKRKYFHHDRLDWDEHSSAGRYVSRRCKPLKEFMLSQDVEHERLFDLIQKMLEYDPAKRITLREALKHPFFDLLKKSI

DYRK1A [4] = molecular target: T1, DYRK1A; assay: as above; assay type: biochemical
DYRKIA = molecular target: T4, DYRKIA (Homo sapiens, UniProt Q13627); assay: Cyclin D1 expression in HEK293 Flp-In cell line with inducible DYRK expression (western blotting); assay type: cell-based
T4 construct: expressed in transfected cells; host or cells: HEK293 Flp-In
Method: (§1) Using cell lines that can induce the expression of DYRKIA, DYRKIB, and DYRK2 by the addition of a drug, the expression level of cyclin D1 was examined when DYRK was overexpressed (see FIG. 8). Specifically, the experiments were performed in the following manner.
(§2) A HEK293 Flp-In cell system was used to prepare cell lines that can induce the expression of each of DYRKIA, DYRK1B, and DYRK2 of the DYRK family by the addition of a drug. The cells were treated with the drug for 16 hours to induce the expression of DYRK, and then cultured in the presence of the compound 2 (5 μM) for 4 hours. After the cells were collected, the expression level of cyclin D1 was analyzed by western blotting (see FIG. 8).

DYRK1B = molecular target: T5, DYRK1B (Homo sapiens, UniProt Q9Y463); assay: as above; assay type: cell-based
T5 construct: expressed in transfected cells; host or cells: HEK293 Flp-In
T5 sequence (Q9Y463 whole entry, species assumed): as the sequence (Q9Y463 whole entry) above
Method: as §1, §2

DYRK2 [5] = molecular target: T3, DYRK2; assay: as above; assay type: cell-based
Method: as §1, §2

[6] = test system: neural stem cells in the dentate gyrus of the hippocampus; assay: Neurogenesis in dentate gyrus of hippocampus of mice (BrdU positive cells); assay type: in vivo, C57BL/6J mice; conditions: oral, 30 mg/kg and 100 mg/kg for 10 or 30 days; depended on the dosage; compared to solvent control
Method: The effect of the compound 2 on neurogenesis in animal individuals (rodents) was studied. The subgranular zone of the dentate gyrus of the hippocampus is a region where neurogenesis occurs. In this region, 5-bromo-2′-deoxyuridine (BrdU) was used as a cell proliferation marker to specifically detect proliferating cells and quantitatively compare the number of proliferating cells. Specifically, the experiments were performed in the following manner. The compound 2 was prepared with a carboxymethyl cellulose solvent and orally administered repeatedly to 9-week-old male C57BL/6J mice (each weighing 25 g) in a dosage of 30 mg/kg and 100 mg/kg for 10 or 30 days. On the last day of the administration, 150 mg/kg of BrdU were intraperitoneally injected into the mice, and the samples were collected 24 hours later by perfusion fixation. Then, coronal sections of 50 μm were prepared by a microtome. After the denaturation of DNA by 1.5 N hydrochloric acid, an anti-BrdU antibody was used to detect BrdU that had been incorporated into the proliferating neural stem cells.

Row | inhibition of the CLK3 activity (CLK3) | inhibition of the CLK2 activity (CLK2) | inhibition of the DYRK3 activity (DYRK3) | inhibition of the DYRK2 activity (DYRK2 [3]) | inhibition of the DYRKIB activity (DYRKIB) | inhibition of the CLK1 activity (CLK1) | inhibition of the DYRK1A activity (DYRK1A [4]) | expression level of cyclin D1 (DYRKIA; DYRKIA cell line, compound 5 μM for 4 hours, lane 2 of FIG. 8) | reduction in cyclin D1 by inducing the expression of DYRK (DYRKIA; DYRKIA expression induced 16 hours, then compound 5 μM for 4 hours, lane 4 of FIG. 8) | expression level of cyclin D1 (DYRK1B; DYRK1B cell line, compound 5 μM for 4 hours, lane 6 of FIG. 8) | reduction in cyclin D1 by inducing the expression of DYRK (DYRK1B; DYRK1B expression induced 16 hours, then compound 5 μM for 4 hours, lane 8 of FIG. 8) | expression level of cyclin D1 (DYRK2 [5]; DYRK2 cell line, compound 5 μM for 4 hours, lane 10 of FIG. 8) | reduction in cyclin D1 by inducing the expression of DYRK (DYRK2 [5]; DYRK2 expression induced 16 hours, then compound 5 μM for 4 hours, lane 12 of FIG. 8) | SMILES | tau phosphorylation in cells (DYRK1A [1]) | tau phosphorylation caused by the cold water stress (brain) [2] | number of proliferating cells (BrdU positive) in the subgranular zone of the dentate gyrus of the hippocampus [6]
1 |  |  |  |  |  |  |  |  |  |  |  |  |  | COc1ccc2c([nH]c3c(C)nccc32)c1C#C[Si](C)(C)C [compound 3, 8-[2-(trimethylsilyl)ethynyl]harmine] | inhibited |  | 
2 | 80% | 98% | 100% | 100% | 99% | 99% | 98% |  |  |  |  |  |  | CCN1/C(=C/C(C)=O)Sc2ccc3c(c21)CCO3 [compound 1, (Z)-1-[1-ethyl-7,8-dihydrobenzofuro[4,5-d]thiazol-2(1H)-ylidene]propan-2-one] |  | inhibited | 
3 |  |  |  |  |  |  |  | increased | corrected | increased | corrected | increased | corrected | CCN1/C(=C/C(C)=O)Sc2ccc3occc3c21 [compound 2, (Z)-1-[1-ethyl-7,8-benzofuro[4,5-d]thiazol-2(1H)-ylidene]propan-2-one] |  | inhibited | significantly large
